From ChEMBL document CHEMBL1201862, “PubChem BioAssay data set” (2004) come the findings set out here.

SMILES strings stand for the structures. Active and inactive are the calls of the source.

The nature of experiment [1]: inhibitors of firefly luciferase expression or activity, dose response, H4 neuroglioma cells, luminescence (AID 1990). The format is functional, cell-based.
Experiment [2] is described as follows: luciferase reporter signal reduction – luminescence, H4-C neuroglioblastoma cells, dose response (AID 2458).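 Also: H4 neuroglioblastoma cells stably carrying a luciferase reporter gene fusion.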 The format is functional, cell-based. (In general: A reporter such as luciferase makes a cellular process visible.)
Experiment [3] has as its system BJ. In words: cytotoxicity toward BJ-TERT fibroblasts, dose response, cell-based, RAS-independent, luminescence (AID 1933). The format is functional. The following applies: Homo sapiens.
A short description of the next experiment: cells. The format is functional, cell-based.
The nature of experiment [4]: Luminescence Cell-Based Dose Response HTS to Identify Inhibitors of 5'UTR Stem-Loop Driven Prion Protein mRNA Translation in H4 Neuroglioblastoma Cells. [Related pubchem assays: 1827 (Project Summary), 1813 (Primary HTS)]. The format is functional.
The nature of experiment [5]: inhibitors of SNCA 5'UTR-driven reporter translation, confirmation, H4 neuroglioma cells, luminescence (AID 1988). The format is functional, cell-based.
Experiment [6] has as its system BJ. In words: cells. The format is functional, cell-based. The following applies: Homo sapiens.
A further experiment concerns J774.A1. In words: Confirmation of image-based Screening Assay for Inhibitors of Phagocytosis. [Related pubchem assays (depositor defined):AID1029, AID1643]. The following applies: Mus musculus. The format is functional, cell-based.
Experiment [7] deals with BJ. The experiment can be described thus: cytotoxicity toward BJ-TERT-LT-ST fibroblasts, dose response, cell-based, RAS-independent, luminescence (AID 1935).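 Also: BJ fibroblasts immortalized with TERT plus LT and ST oncogenes.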 The format is functional. As to conditions: Homo sapiens.
A short description of experiment [8]: cytotoxicity toward DRD oncogenic fibroblasts, dose response, cell-based, non-viral oncogenic, luminescence (AID 1934). The format is functional. The following applies: Homo sapiens.
Experiment [9] is described as follows: inhibitors of SNCA 5'UTR-driven translation, confirmation, luminescence, H4 neuroglioblastoma cells, dose confirmation (AID 2454).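 Also: H4 neuroglioblastoma cells carrying an alpha-synuclein 5'UTR luciferase reporter; potency for inhibition of the luciferase signal.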 The format is functional, cell-based.
Experiment [10] can be described thus: cytotoxicity in HEK-293T cells, dose response, cytotoxicity control for TCR NF-kB inhibitor project, luminescence, T-cell screen hits (AID 489026).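 Also: cells exposed to compound about 14 hours before the viability readout.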 The format is functional, cell-based.
Experiment [11] can be described thus: HEK293 cell cytotoxicity, dose response, cytotoxicity control, dry powder samples (AID 720567). The format is functional, cell-based.
Experiment [12] addresses T1, RNA-binding protein pos-1 (Caenorhabditis elegans, UniProt G5EF15).
T1 sequence (G5EF15 whole entry): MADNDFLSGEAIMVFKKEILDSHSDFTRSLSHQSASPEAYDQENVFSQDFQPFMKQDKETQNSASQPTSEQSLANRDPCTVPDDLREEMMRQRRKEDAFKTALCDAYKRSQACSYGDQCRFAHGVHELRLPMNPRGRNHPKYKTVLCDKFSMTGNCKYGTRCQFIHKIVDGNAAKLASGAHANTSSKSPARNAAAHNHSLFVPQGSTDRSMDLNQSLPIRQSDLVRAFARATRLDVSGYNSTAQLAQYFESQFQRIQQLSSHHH
The experiment can be described thus: inhibitors of POS-1/mex-3 RNA binding, dose response, biochemical, fluorescence polarization (AID 1964).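 Also: purified POS-1 fused to maltose binding protein made in E. coli; potency of compounds blocking POS-1 binding to fluorescent RNA.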

Experiment [13] deals with Glyceraldehyde-3-phosphate dehydrogenase (Homo sapiens, UniProt P04406).
Sequence of Glyceraldehyde-3-phosphate dehydrogenase (P04406 whole entry): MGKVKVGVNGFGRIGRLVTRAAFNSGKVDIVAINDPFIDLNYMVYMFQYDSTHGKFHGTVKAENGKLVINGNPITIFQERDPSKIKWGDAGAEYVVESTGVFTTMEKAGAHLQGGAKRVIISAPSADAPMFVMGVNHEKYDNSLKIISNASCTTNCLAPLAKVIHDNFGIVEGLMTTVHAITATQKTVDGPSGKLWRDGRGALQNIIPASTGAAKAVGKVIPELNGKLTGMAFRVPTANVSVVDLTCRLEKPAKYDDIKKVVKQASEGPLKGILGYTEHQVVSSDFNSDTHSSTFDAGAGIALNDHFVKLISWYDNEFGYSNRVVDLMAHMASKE
In experiment [14] the target is T2, Zinc finger protein mex-5 (Caenorhabditis elegans, UniProt Q9XUB2).
T2 sequence (Q9XUB2 whole entry): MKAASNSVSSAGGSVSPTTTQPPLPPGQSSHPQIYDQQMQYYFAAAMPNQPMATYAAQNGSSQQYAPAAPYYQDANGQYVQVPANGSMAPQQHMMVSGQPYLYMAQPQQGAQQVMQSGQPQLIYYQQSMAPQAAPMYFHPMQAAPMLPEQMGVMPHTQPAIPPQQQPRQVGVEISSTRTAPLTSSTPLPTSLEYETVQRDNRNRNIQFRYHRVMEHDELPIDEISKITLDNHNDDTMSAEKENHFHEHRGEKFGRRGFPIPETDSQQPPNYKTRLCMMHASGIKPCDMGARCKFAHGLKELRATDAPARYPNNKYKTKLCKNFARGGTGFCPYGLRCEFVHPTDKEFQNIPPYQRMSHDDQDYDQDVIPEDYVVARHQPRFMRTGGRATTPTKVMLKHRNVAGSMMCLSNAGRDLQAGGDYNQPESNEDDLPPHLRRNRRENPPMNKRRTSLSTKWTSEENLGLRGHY
In words: MEX-5/TCR-2 RNA interaction inhibitors, dose response, biochemical, C. elegans, fluorescence polarization (AID 1960). For orientation: Fluorescence polarisation rises when a labelled molecule tumbles more slowly, as on binding a larger partner.

The target of experiment [15] is Heat shock cognate 71 kDa protein (Homo sapiens, UniProt P11142). In words: In Vitro Hsc70 Dose Response Fluorescence Polarization Assay. [Related pubchem assays: 1072 ].
Sequence of Heat shock cognate 71 kDa protein (P11142 whole entry): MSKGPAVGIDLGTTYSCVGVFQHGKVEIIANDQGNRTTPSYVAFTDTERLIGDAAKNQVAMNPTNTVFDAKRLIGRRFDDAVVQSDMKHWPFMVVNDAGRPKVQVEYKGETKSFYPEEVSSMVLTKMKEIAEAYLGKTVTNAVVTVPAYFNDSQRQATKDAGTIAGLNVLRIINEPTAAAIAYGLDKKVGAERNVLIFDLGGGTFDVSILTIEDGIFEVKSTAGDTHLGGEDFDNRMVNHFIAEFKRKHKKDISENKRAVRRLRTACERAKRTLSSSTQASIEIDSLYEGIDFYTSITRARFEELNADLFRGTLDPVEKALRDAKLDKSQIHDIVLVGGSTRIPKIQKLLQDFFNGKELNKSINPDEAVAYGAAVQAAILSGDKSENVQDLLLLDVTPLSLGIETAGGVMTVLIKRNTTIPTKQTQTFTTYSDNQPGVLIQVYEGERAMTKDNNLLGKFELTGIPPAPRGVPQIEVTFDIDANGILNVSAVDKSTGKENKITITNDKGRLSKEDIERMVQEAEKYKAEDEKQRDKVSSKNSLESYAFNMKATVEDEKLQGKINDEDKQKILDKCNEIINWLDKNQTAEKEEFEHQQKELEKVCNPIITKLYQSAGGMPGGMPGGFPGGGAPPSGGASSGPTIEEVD
Experiment [16] deals with Heat shock 70 kDa protein 1A (Homo sapiens, UniProt P0DMV8). The experiment can be described thus: Hsp70 inhibitors, SAR follow-up, biochemical, fluorescence polarization (AID 1072).
Sequence of Heat shock 70 kDa protein 1A (P0DMV8 whole entry): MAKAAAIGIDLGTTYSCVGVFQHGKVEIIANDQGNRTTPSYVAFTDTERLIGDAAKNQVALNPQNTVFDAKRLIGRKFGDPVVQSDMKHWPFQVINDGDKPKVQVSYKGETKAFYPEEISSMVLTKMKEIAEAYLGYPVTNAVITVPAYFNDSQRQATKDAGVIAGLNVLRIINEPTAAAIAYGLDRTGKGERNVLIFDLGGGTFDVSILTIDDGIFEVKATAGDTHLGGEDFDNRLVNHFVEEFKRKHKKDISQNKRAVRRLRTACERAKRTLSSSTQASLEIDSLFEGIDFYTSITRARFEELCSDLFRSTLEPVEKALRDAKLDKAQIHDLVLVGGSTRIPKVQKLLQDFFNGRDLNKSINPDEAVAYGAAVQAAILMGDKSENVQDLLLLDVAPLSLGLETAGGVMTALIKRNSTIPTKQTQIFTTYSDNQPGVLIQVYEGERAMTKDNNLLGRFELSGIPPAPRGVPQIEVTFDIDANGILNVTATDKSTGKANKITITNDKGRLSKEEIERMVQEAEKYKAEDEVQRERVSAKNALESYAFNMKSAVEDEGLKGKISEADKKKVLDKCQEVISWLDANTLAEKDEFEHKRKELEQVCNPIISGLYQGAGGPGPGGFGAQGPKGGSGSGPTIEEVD
The next experiment concerns the target ORF 73 (Human herpesvirus 8, UniProt O40947). The experiment can be described thus: inhibitors of C-LANA binding to LBS DNA, dose response, biochemical, fluorescence polarization, cherry-picked samples (AID 504725).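 Also: fluorescence polarization of a labeled DNA duplex reporting LANA DNA binding; potency is for inhibitors that block LANA binding to the DNA.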 Set-up: species or system Human gammaherpesvirus 8.
The next experiment deals with Genome polyprotein (dengue virus type 2, UniProt P29990). The experiment can be described thus: Dengue-2 NS5 methyltransferase inhibitors, primary screen, biochemical, confirmation dose response (AID 588689). The format is functional.
Sequence of Genome polyprotein (P29990 2492-3391 limits assumed): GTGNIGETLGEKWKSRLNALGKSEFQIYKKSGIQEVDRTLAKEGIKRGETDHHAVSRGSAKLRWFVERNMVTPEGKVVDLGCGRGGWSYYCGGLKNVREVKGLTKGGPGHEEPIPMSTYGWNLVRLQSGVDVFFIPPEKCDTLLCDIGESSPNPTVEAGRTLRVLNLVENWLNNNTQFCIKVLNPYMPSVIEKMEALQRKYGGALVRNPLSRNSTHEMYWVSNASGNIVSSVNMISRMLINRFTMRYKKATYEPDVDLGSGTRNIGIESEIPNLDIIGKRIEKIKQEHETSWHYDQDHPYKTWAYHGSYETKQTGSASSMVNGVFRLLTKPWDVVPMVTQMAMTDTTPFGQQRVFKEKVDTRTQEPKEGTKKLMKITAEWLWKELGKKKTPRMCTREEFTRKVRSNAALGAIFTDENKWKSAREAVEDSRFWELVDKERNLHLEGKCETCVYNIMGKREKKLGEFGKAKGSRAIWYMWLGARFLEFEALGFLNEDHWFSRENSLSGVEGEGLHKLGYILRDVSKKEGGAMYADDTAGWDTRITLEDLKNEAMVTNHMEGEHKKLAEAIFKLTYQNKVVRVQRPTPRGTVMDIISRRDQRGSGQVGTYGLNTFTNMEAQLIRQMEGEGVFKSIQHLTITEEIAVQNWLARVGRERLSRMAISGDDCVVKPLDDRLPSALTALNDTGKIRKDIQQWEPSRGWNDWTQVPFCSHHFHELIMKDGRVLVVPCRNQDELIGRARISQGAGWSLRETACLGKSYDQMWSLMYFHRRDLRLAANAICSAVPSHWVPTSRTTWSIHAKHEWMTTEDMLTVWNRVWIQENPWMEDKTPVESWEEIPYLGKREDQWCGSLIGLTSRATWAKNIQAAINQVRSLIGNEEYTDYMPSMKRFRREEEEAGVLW
The next experiment has as its system Saccharomyces cerevisiae. In words: NALP1 inhibitor project selectivity study, Caspase-1/ASC signal blockade IC50 in S. cerevisiae (AID 488863). The format is functional, organism-based.
Experiment [17] deals with NACHT, LRR and PYD domains-containing protein 1 (Homo sapiens, UniProt Q9C000). The experiment can be described thus: NALP1 inhibitors in yeast, dose response, luminescent (AID 488860). The format is functional.
Sequence of NACHT, LRR and PYD domains-containing protein 1 (Q9C000 1-1212 limits assumed): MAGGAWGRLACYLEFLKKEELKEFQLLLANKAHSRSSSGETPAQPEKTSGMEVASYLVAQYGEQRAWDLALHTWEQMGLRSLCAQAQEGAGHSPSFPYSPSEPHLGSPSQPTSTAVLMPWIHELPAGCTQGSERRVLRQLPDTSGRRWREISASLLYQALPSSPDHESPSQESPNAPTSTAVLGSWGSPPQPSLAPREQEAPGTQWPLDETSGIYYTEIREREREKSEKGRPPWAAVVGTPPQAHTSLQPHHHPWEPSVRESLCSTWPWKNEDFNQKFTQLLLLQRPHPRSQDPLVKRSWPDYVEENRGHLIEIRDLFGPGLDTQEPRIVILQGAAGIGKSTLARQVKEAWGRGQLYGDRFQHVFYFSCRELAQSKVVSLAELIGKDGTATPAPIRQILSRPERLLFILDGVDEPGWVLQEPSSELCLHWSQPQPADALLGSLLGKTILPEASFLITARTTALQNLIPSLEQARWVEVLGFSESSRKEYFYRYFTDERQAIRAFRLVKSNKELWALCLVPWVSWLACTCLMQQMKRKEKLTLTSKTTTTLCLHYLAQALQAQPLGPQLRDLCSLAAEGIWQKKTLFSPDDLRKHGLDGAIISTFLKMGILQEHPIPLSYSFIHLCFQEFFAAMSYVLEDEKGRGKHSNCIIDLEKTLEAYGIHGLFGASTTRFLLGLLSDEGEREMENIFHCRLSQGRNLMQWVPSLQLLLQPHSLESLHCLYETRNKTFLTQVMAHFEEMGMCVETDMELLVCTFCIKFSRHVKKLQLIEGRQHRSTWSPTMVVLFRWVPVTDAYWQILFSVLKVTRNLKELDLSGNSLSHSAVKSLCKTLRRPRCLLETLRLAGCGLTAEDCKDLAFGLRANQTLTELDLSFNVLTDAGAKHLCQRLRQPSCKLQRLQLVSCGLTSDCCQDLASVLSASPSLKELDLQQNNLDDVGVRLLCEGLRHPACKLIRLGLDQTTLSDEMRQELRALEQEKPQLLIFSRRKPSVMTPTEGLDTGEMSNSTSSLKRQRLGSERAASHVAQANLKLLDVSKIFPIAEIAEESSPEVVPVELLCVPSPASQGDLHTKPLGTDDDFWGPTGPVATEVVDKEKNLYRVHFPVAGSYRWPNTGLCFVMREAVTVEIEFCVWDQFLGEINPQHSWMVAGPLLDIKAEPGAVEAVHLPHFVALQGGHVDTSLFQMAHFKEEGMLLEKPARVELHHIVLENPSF
Sequence of NACHT, LRR and PYD domains-containing protein 1 (Q9C000 1213-1473 limits assumed): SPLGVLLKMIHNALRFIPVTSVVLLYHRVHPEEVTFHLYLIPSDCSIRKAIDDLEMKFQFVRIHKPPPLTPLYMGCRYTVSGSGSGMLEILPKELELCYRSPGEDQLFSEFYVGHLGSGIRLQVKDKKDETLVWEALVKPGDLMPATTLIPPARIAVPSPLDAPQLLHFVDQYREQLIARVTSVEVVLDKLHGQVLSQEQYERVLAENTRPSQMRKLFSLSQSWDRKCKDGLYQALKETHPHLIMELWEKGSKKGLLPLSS
In experiment [18] the target is T3, Polyadenylate-binding protein 1 (Homo sapiens, UniProt P11940). In words: PABP1 MLLE–PAM2 interaction inhibitors, dose response, miRNA deadenylation inhibitor project, biochemical, fluorescence polarization, Cy5-PAM2 peptide, secondary (AID 602260). The format is functional. As to conditions: read-out: IC50_Mean.
T3 sequence (P11940 whole entry): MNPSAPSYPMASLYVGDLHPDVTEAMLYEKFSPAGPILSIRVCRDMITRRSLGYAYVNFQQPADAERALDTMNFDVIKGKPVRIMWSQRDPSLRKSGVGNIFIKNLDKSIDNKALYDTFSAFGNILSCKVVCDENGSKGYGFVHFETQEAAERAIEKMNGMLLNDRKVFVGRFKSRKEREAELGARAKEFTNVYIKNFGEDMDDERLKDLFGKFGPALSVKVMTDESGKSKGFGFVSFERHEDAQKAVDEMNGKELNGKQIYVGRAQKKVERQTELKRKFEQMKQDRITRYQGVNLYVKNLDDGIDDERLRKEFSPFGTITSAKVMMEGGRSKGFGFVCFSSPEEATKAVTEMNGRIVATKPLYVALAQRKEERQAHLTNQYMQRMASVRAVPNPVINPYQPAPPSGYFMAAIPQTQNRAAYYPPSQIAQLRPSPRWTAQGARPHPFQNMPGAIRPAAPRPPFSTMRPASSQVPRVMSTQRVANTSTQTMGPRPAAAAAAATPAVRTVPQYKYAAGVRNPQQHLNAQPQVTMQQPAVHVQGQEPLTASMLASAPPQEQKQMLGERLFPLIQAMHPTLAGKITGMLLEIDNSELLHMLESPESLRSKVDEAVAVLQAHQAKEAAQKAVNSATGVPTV
Experiment [19] concerns the target T3, Polyadenylate-binding protein 1. In words: PABP1 MLLE–PAM2 binding inhibitor potency, dose response, biochemical, fluorescence polarization, FITC-PAM2 peptide (AID 602259). The following applies: read-out: IC50_Mean. The format is functional.
For experiment [20], the target named is NACHT, LRR and PYD domains-containing protein 3 (Homo sapiens, UniProt Q96P20). The experiment can be described thus: NALP3 inhibitors in yeast, dose response, luminescent (AID 488799). The format is functional.
A short description of experiment [21]: cytotoxicity in BJeHLT fibroblasts, dose response, counter-screen for Ras selective lethality project, BJeHLT cells, dry powder (AID 493052). The format is functional, cell-based. The following applies: Homo sapiens. For orientation: The purpose of a counterscreen is to sort out artefacts and off-target activity.
Experiment [22] in a line: viability loss in HRASV12 DRD fibroblasts, dose response, cell-based, DRD BJ fibroblasts, dry powder (AID 493049). The format is functional.
Experiment [23] is described as follows: viability loss in BJeLR (HRASV12) cells, primary screen, Ras selective lethality project, cell-based, Alamar Blue, dry powder (AID 493045). The format is functional.
The nature of experiment [24]: cytotoxicity in BJeH fibroblasts, dose response, counter-screen for Ras selective lethality project, BJeH cells, dry powder (AID 493054). The format is functional, cell-based.
Experiment [25] has as its target Eukaryotic translation initiation factor 4H (Homo sapiens, UniProt Q15056). In words: eIF4H inhibition in translation initiation, SAR follow-up (AID 435011). The format is functional.
Experiment [26] concerns the target T3, Polyadenylate-binding protein 1. In words: PABP inhibition in translation initiation, SAR follow-up (AID 435018). The format is functional.
A short description of experiment [27]: cytotoxicity in HEK-293T cells, dose response, cytotoxicity control for BCR NF-kB inhibitor project, luminescence, B-cell screen hits (AID 489021).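 Also: HEK-293T cells carrying an NF-kB luciferase reporter; cells exposed to compound for about 14 hours before viability readout.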 The format is functional, cell-based.
In experiment [28] the target is T4, Histone-lysine N-methyltransferase NSD2 (Homo sapiens, UniProt O96028).
T4 sequence (O96028 whole entry): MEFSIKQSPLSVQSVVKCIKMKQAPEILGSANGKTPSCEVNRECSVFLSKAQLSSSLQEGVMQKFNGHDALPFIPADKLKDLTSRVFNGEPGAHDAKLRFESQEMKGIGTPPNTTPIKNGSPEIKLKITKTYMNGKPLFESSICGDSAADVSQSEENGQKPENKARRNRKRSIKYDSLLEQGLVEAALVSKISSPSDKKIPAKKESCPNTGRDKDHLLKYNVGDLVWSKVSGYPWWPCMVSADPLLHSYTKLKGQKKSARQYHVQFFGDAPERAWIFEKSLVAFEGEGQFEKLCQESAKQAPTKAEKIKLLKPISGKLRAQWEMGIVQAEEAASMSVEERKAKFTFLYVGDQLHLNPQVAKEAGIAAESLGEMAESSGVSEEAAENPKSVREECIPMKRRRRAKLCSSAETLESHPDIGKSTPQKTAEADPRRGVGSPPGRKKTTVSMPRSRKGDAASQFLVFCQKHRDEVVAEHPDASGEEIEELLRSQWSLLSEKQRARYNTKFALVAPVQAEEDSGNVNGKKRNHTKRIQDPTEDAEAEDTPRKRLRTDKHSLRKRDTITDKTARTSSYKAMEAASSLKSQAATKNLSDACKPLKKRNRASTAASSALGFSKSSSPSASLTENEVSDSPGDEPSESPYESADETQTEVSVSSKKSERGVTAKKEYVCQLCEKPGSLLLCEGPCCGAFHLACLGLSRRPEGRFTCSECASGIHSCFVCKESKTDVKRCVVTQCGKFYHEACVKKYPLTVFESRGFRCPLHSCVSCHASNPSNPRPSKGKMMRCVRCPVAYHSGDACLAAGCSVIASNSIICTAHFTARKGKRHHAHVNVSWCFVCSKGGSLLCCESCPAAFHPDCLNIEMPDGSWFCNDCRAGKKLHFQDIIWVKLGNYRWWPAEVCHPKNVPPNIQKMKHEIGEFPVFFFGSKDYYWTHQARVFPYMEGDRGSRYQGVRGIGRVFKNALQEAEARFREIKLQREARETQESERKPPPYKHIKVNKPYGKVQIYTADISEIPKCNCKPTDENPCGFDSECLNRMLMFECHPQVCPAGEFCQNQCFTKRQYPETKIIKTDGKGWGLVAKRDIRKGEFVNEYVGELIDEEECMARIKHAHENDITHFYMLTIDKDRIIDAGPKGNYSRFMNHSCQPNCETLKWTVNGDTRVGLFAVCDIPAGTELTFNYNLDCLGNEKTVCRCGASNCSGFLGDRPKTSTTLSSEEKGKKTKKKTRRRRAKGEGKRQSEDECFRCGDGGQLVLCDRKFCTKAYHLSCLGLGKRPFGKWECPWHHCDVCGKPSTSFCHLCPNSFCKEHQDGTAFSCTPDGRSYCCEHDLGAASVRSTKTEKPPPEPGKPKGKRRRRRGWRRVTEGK
The format is biochemical.

One may read the EC50 as the concentration that produces a half-maximal response. The term AC50 denotes the midpoint of the concentration-response curve, whichever way the signal moves. In the case of `Cc1cc(C)cc(C(=O)N2CC(=O)Nc3ccccc32)c1`, the EC50 in experiment [1] is 1.09 µM (active); in experiment [2], 0.921 µM (active); in the experiment on BJ [3] it was 1.24 µM (inconclusive); in “cells”, 0.858 µM (active); in experiment [4], < 0.1 µM (active); in [5], < 0.1 µM (active). Also, the EC50 in the experiment on BJ [6] is 3.38 µM (active); in the experiment with BJ [7] it was 11.5 µM (inconclusive); in experiment [8], 0.817 µM (active); in experiment [9], > 12 µM (inconclusive). For the same molecule, the IC50 with J774.A1 was 0.161 µM (active); in experiment [10], > 80 µM (inactive). Further, in experiment [11], the AC50 was > 30 µM (inactive).
For `CCN(CC)C(=O)c1ccc2c(c1)C1C=CCC1C(C(=O)O)N2` (stereo not drawn), the values for the EC50 in experiment [12] and in experiment [14] were 11.2 µM (active) and 6.32 µM (active), respectively. Besides, the IC50 in experiment [13] is > 100 µM (not active); in [15], > 100 µM (not active); in experiment [16], > 100 µM (not active); at Genome polyprotein, 86.7 µM (active). Further, the AC50 at ORF 73 is 166 µM (active).
`Cc1ccc(N2C(=O)CC(Sc3ccccc3C(=O)O)C2=O)cc1` (stereo not drawn): the IC50 in the experiment with Saccharomyces cerevisiae was 20.6 µM (active); in [17] it was 34.4 µM (active); in [18], > 66 µM (inactive); in [19] it was > 66 µM (inactive).
As to `CCCCCNC(=O)C(=O)C1C(=O)Nc2ccccc21` (stereo not drawn), in [20], the IC50 was 2.9 µM (active).
For `COc1ccc(N(C(=O)CCl)C(C(=O)NCCc2ccccc2)C2CCCCC2)cc1Cl` (stereo not drawn), the half-maximal activity concentration (AC50) in experiment [21] is 1.18 µM (active); in experiment [22], 0.496 µM (active); in [23], 0.505 µM (active); in [24], 1.48 µM (active).
For the molecule `Cc1ccc(NC(=O)C2CCN(C(=O)c3cccs3)CC2)cc1`, the IC50 in experiment [25] and in [26] was > 100 µM (inactive) each time.
On to `CCN(CC)CCC/N=C/c1c(-c2ccccc2)nn(-c2nc3ccccc3s2)c1O`, for which the IC50 in [27] was > 80 µM (inactive). Besides, the AC50 in [28] is > 20 µM (inactive).
